A short description of this series: Human HepG2 cell viability assay in 384 well format. It counts as toxicity, cell-based. The settings on record: HepG2 cells, read-out: Inhibition. Further details: dose 125 nL, time 70.5 hour; concentration not given beside the values.
With `O=C1C[C@@H]2[C@H](CCN2Cc2ccco2)N1c1ccsc1`, the cytotoxicity at 70.5 h was 9.07%.

Regarding `CN(C)C(=O)c1noc2c1CN(C(=O)CCCN1CCCCC1)CC2`, the cytotoxicity at 70.5 h came to 10.8%.

Regarding `COCC(=O)N1CCCC(c2noc3nc(C)cc(C(F)(F)F)c23)C1` (configuration not stated), the cytotoxicity at 70.5 h came to 12.8%.

On to `CCN(C)Cc1cnc(S(=O)(=O)CC)n1CCOC`, for which the cytotoxicity at 70.5 h is -3.96%.

Turning to `Cc1cc(C(=O)N2CC(O)CO2)c2cccc(C)c2n1` (configuration not stated), the cytotoxicity at 70.5 h was -13%.

`CCOc1ccc(C(=O)N2C[C@H]3CC[C@@H]2CN(C)C3)cc1OCC`: the cytotoxicity at 70.5 h is -14.6%.

On to `CCCNC(=O)c1[nH]nc(C2CC2)c1Br`, for which the cytotoxicity at 70.5 h is -5.95%.

`O=C(CCn1c(C(F)(F)F)cc2cccnc21)N1CCCC1`: the cytotoxicity at 70.5 h was -0.515%.

Consider `COc1ccc(Br)c(C(=O)NCC2CCN(C(=O)c3ccoc3)CC2)c1`, for which the cytotoxicity at 70.5 h came to 0.959%.

`CNC(=O)[C@@]12CCO[C@@H]1CCN(S(=O)(=O)c1cc(C)cc(C)c1)C2`: the cytotoxicity at 70.5 h is -13.2%.

As to `CCn1cc(CN(C)S(=O)(=O)c2cnn(C)c2)cn1`, the cytotoxicity at 70.5 h was -6.45%.

For `O=C(NCCCn1cccn1)N1CCCC1c1ccncc1` (configuration not stated), the cytotoxicity at 70.5 h was found to be 6.98%.

On to `Cc1cc(-c2nn(C)c(Cl)c2CN2CCC3(CC2)[C@H](O)C[C@@H]3O)no1`, for which the cytotoxicity at 70.5 h was -4.3%.

Regarding `CCN1C(=O)CC[C@]12CC[C@@H](NC(=O)c1ccncc1F)CC2`, the cytotoxicity at 70.5 h is -6.51%.

Regarding `CN(C)c1ncc(NC(=O)c2cccc(Nc3cnn(C)c3)c2)cn1`, the cytotoxicity at 70.5 h turned out to be 2.52%.

As to `CC(NC(=O)NCc1ccc(Cl)cc1)c1ccccn1` (configuration not stated), the cytotoxicity at 70.5 h was -10.7%.

For `O=C(NCc1nn(-c2ccccc2)c2c1CCC2)NC1CCOCC1`, the cytotoxicity at 70.5 h was -0.276%.

As to `CCS(=O)(=O)N1CC[C@@H]2[C@H](CC1)N(Cc1cccc(C)n1)CCS2(=O)=O`, the cytotoxicity at 70.5 h is 2.24%.

For the compound `Cc1ccc(S(=O)(=O)N2CCN(CCCO)CC2)s1`, the cytotoxicity at 70.5 h was -2.4%.

Regarding `CCCc1cc(C(=O)N2CCC3(CCCN(CCO)C3=O)C2)cs1` (configuration not stated), the cytotoxicity at 70.5 h was -0.486%.

On to `COc1cccc(C(C(=O)O)N2CCCN(c3ccnc(C)c3)CC2)c1` (configuration not stated), for which the cytotoxicity at 70.5 h was -7.15%.

On to `CC(=O)N1CC(Cc2nccc3ccn(C)c23)C1`, for which the cytotoxicity at 70.5 h was -5.15%.

Turning to `CCn1cnnc1C1CCN(C(=O)c2cc(C)c(C)s2)CC1`, the cytotoxicity at 70.5 h worked out at 15.5%.

On to `Cc1cc(C(=O)N2CCC[C@]3(C[C@H](OCC4CC4)CO3)C2)no1`, for which the cytotoxicity at 70.5 h was -0.0994%.

`Cc1ccc(OCC(=O)NS(=O)(=O)c2c(C)noc2C)cc1C`: the cytotoxicity at 70.5 h was found to be 25%.

For `CC(C)N(CCO)C(=O)c1cc(COc2ccc3c(c2)CCCC3)on1`, the cytotoxicity at 70.5 h was -10.1%.

Turning to `O=C(C1CCCN(Cc2cccnc2)C1)N1CCc2sccc2C1` (configuration not stated), the cytotoxicity at 70.5 h was -5.24%.

`CN1CC(=O)N(c2ccsc2)CC12CCN(Cc1nccn1C)C2` (configuration not stated): the cytotoxicity at 70.5 h was -0.505%.

In the case of `O=S(=O)(C1CC1)N1CCO[C@H]2[C@@H](Oc3ncccc3F)CC[C@@H]21`, the cytotoxicity at 70.5 h was -8.02%.

Turning to `CC(C)n1c2ccccc2c2c1cc(C(=O)NC1CC1)n2C(=O)N(C)C`, the cytotoxicity at 70.5 h amounted to 1.81%.

For `Cc1nc(CC(=O)N2CCC3(CC2)CC(=O)N(CC2CCCO2)C3)cs1` (configuration not stated), the cytotoxicity at 70.5 h is -3.04%.

In the case of `Cn1nc(C2CCCN(C(=O)Cc3ccsc3)C2)c2nccnc21` (configuration not stated), the cytotoxicity at 70.5 h was -9.48%.

On to `CC(C)N(Cc1ccccc1)Cc1csc(-c2ncccn2)n1`, for which the cytotoxicity at 70.5 h was -10.1%.

In the case of `Cn1ncnc1NCc1ccc(Br)cc1`, the cytotoxicity at 70.5 h was -5.73%.

For the compound `CC1CN(c2ncnc3ccccc23)CCO1` (configuration not stated), the cytotoxicity at 70.5 h came out at 10%.

With `Cc1ccc(N2CCN(C(=O)CN3C[C@@H]4CC[C@H]3C4)CC2=O)cc1`, the cytotoxicity at 70.5 h is 24.1%.

Consider `COc1ccccc1CC(C)CC(=O)NS(=O)(=O)C(C)C` (configuration not stated), for which the cytotoxicity at 70.5 h was 9.2%.

For `c1ccc(CN2CCc3c(COCC4CC4)cncc3C2)nc1`, the cytotoxicity at 70.5 h is -11.4%.

Regarding `CC(O)CN1CCN(Cc2coc(-c3ccccc3Cl)n2)CC1` (configuration not stated), the cytotoxicity at 70.5 h was -4.11%.

For `CC(C)c1cc(NC(=O)CN2CCc3c(nc(C(C)C)n3C)C2)on1`, the cytotoxicity at 70.5 h was -15%.

In the case of `CC(C)n1ccnc1CN1CCCN(C(=O)c2cc(Cl)c[nH]2)CC1`, the cytotoxicity at 70.5 h was -3.72%.

For `CC(C)Nc1cccc(C(=O)NCC(O)c2ccc(F)cc2F)c1` (configuration not stated), the cytotoxicity at 70.5 h was -1.19%.

With `Cc1cnc2c(S(=O)(=O)NC(=O)C(C)OCC3CC3)cccc2c1` (configuration not stated), the cytotoxicity at 70.5 h is -0.0884%.

Consider `NC(=O)C(CNC(=O)Cc1ccc(F)cc1)Cc1ccc(F)cc1` (configuration not stated), for which the cytotoxicity at 70.5 h is -7.46%.

Consider `COCCN1C(=O)C2(CCN(CC3CC3)CC2)c2ccccc21`, for which the cytotoxicity at 70.5 h was 0.205%.

`CCn1ccnc1CN1CCCN(C(=O)c2cncnc2C)CC1`: the cytotoxicity at 70.5 h is 0.803%.

Consider `CCc1nc(C)c([C@H]2CN(C)C[C@@H]2C(=O)Nc2ccccc2F)[nH]1`, for which the cytotoxicity at 70.5 h is -13.9%.

Consider `Cn1nc2c(cc1=O)CN(Cc1nnc(C3CC3)o1)CC2`, for which the cytotoxicity at 70.5 h worked out at 19.5%.

As to `CN(C)c1ncc(I)c(C2CCCN2S(C)(=O)=O)n1` (configuration not stated), the cytotoxicity at 70.5 h was 44.4%.

For `O=C(Cc1ccccn1)N1CCC2(CC1)[C@H](O)C[C@@H]2O`, the cytotoxicity at 70.5 h was -12.4%.

As to `NC(=O)C(NC(=O)c1cc(Br)c[nH]1)c1ccccc1` (configuration not stated), the cytotoxicity at 70.5 h was found to be 10.8%.

On to `CS(=O)(=O)CCNC(=O)N1CC2(CCCC2)c2ccccc21`, for which the cytotoxicity at 70.5 h came to 0.304%.

As for `COc1cc(N2C[C@H]3CN(C(=O)c4cccnc4)C[C@H]3C2)ncn1`, the cytotoxicity at 70.5 h is -2.8%.

Consider `CCc1noc(C)c1C(=O)Nc1cnn(CC(=O)NC2CCCC2)c1`, for which the cytotoxicity at 70.5 h was -1.44%.

For `Cc1cc(C(=O)N2CCOC(c3nc(C(C)C)n[nH]3)C2)c(C)s1` (configuration not stated), the cytotoxicity at 70.5 h is -4.17%.

Consider `CO[C@@H]1CC[C@H]2[C@H]1OCCN2C(=O)c1ccco1`, for which the cytotoxicity at 70.5 h is -1.75%.

As to `Cn1cccc1-c1cc(C(=O)N2CCCC2C(F)(F)F)[nH]n1` (configuration not stated), the cytotoxicity at 70.5 h was -5.87%.

As to `CCC[C@H]1CN(S(=O)(=O)c2ccccc2)C[C@@H]1N`, the cytotoxicity at 70.5 h was 16.4%.

As to `Cn1c(CCCNC(=O)Nc2cn[nH]c2)nc2ccccc21`, the cytotoxicity at 70.5 h was -3.29%.

`O=C(O)[C@@H]1CN(CC2CCC2)C[C@H]1c1ccc(F)cc1`: the cytotoxicity at 70.5 h was -7.16%.

In the case of `CN1CCN(C2CCN(CC(=O)NCC(F)(F)F)CC2)C1=O`, the cytotoxicity at 70.5 h is -6.61%.

`C=Cn1cc(CN2CCc3nc(-c4cccnc4)nc(O)c3C2)c(C)n1`: the cytotoxicity at 70.5 h was -3.49%.

Take `CCc1noc(C)c1C(=O)N1CCCN(Cc2cscn2)CC1`: the cytotoxicity at 70.5 h was -10.2%.

On to `Cc1ccc(NC2CCN(C(=O)c3ccsc3)CC2)nn1`, for which the cytotoxicity at 70.5 h is -3.84%.

In the case of `Cc1nc2c(c(=O)[nH]1)CCN(Cc1ccc3c(c1)CCCN3C)C2`, the cytotoxicity at 70.5 h is 0.602%.

As to `c1nc(N2CCOCC2)sc1-c1cncn1CCCN1CCCCC1`, the cytotoxicity at 70.5 h is -4.2%.

As to `O=C1CCC2(CCCN(C(=O)Cc3cccs3)C2)N1` (configuration not stated), the cytotoxicity at 70.5 h was -5%.

Take `COc1ccc(N2CCN(C(=O)OC(C)(C)C)C(C(=O)O)C2)cc1` (configuration not stated): the cytotoxicity at 70.5 h was -0.702%.

For the compound `Cc1ccc(CN(C)CC2(O)CCCN(C)C2)o1` (configuration not stated), the cytotoxicity at 70.5 h is -2.94%.

`COCCCNC(=O)Nc1c(C)cccc1C(C)C`: the cytotoxicity at 70.5 h is -9.85%.

On to `CS(=O)(=O)N1CCC(Oc2ccc(C(=O)NC3CCOC3)cc2Cl)CC1` (configuration not stated), for which the cytotoxicity at 70.5 h was -7.64%.

For `CC[C@@H]1N(Cc2ccc(OC)cc2)CCC[C@]12CCC(=O)N2CCOC`, the cytotoxicity at 70.5 h worked out at 16.8%.

As to `c1nc2c(c(C3CCOC3)n1)CCN(Cc1ccoc1)CC2` (configuration not stated), the cytotoxicity at 70.5 h worked out at 7.95%.

Turning to `CC(C)c1ccc(CNC(c2ccc(F)cn2)C(C)C)cc1` (configuration not stated), the cytotoxicity at 70.5 h was 0.89%.

As for `Cc1occc1C(=O)NCC(=O)NCCOc1cccc(Cl)c1`, the cytotoxicity at 70.5 h is -11.3%.

Consider `CC(C(=O)NCc1ccnc(N2CCOCC2)c1)n1cccn1` (configuration not stated), for which the cytotoxicity at 70.5 h is -10.1%.

Regarding `Cc1cccc(-n2nc(CC(C)C)nc2[C@H](C)O)c1`, the cytotoxicity at 70.5 h came to 16.4%.

For `CS(=O)(=O)CCC(=O)N1C[C@@H]2CC[C@H](C1)N(Cc1ccccn1)C2=O`, the cytotoxicity at 70.5 h is 14.6%.

With `Cc1cc(CN(C)C(=O)NC2CCS(=O)(=O)C2)no1` (configuration not stated), the cytotoxicity at 70.5 h is -15.8%.

Turning to `COCC(=O)N1CCCCC1c1nc(CN(C)C(C)=O)cc(N(C)C)n1` (configuration not stated), the cytotoxicity at 70.5 h turned out to be 50.7%.

As to `CCc1ncc2c(n1)CN(CC(=O)Nc1ccncc1)CC2`, the cytotoxicity at 70.5 h was -3.06%.

For the compound `COCCN(C)C(=O)c1nc2c(s1)CCCN2c1ncccn1`, the cytotoxicity at 70.5 h was -3.25%.

As to `Cc1cc(CN2CCN(S(C)(=O)=O)CC(C(=O)N(C)C)C2)no1` (configuration not stated), the cytotoxicity at 70.5 h was 0.351%.

Take `CCS(=O)(=O)N(C)CCCNC(=O)c1cc(Cl)cc2cccnc12`: the cytotoxicity at 70.5 h is -11%.

Consider `CCc1noc(CSc2n[nH]c(-c3ccccn3)n2)n1`, for which the cytotoxicity at 70.5 h is -3.21%.

With `Cc1cnn(CCNCC(=O)Nc2ccc(Cl)cn2)c1`, the cytotoxicity at 70.5 h was -0.0591%.

On to `Cc1nccc(N2CCCC(C)(c3[nH]ncc3C(N)=O)C2)n1` (configuration not stated), for which the cytotoxicity at 70.5 h was -4.04%.

`O=C(c1ccsc1)N1CCC2(CC1)CCN(S(=O)(=O)C1CC1)CC2`: the cytotoxicity at 70.5 h is -9.77%.

In the case of `COC(=O)Cn1ccc(=O)c2ccc(OC)cc21`, the cytotoxicity at 70.5 h was 39.1%.

Turning to `CCN1CCCn2c(nc(CNC(=O)c3ccsc3)cc2=O)C1`, the cytotoxicity at 70.5 h was -15.8%.

Regarding `CC(C)c1nc(CNC(C(=O)N2CCOCC2)C(C)C)no1` (configuration not stated), the cytotoxicity at 70.5 h was -5.23%.

`COC(=O)CN1Cc2cc3c(cc2NCCC1=O)OCO3`: the cytotoxicity at 70.5 h is -9.74%.

As to `CCN(c1ccc(C(=O)NCCCN2CCCC2)cc1)S(=O)(=O)CC`, the cytotoxicity at 70.5 h was -8.8%.

With `CN(C)C(=O)c1ccc(-c2cccc3c2CCNC3)cc1`, the cytotoxicity at 70.5 h was -18%.

`CCCOC(=O)N1CCC(c2nnc(Cn3cccn3)n2C2CC2)CC1`: the cytotoxicity at 70.5 h is 4.42%.

For `CN(CCNS(C)(=O)=O)C(=O)c1ccc(Cl)c(Cl)c1`, the cytotoxicity at 70.5 h is -6.01%.

For `CC(C)(C)C1SCC(=O)Nc2c1c(O)nn2C1CCCCC1` (configuration not stated), the cytotoxicity at 70.5 h stood at 8.92%.

The record behind these values is ChEMBL document CHEMBL3507680, “University of Dundee, Gates Library screen for HepG2 cell viability”.
